# Data taken from ChEMBL document CHEMBL1133192, “sp2-bridged diaryl retinoids: effects of bridge-region substitution on retinoid X receptor (RXR) selectivity” (Bioorg Med Chem Lett, 2000).
# Active and inactive are the calls of the source. The calls are words filed in the database; no cut-off is given here.
# What was measured:
# [1] = biological target: T1, Retinoic acid receptor RXR-alpha (Homo sapiens, UniProt P19793); test: Transcriptional activation in CV-1 expressing retinoid X receptor RXR alpha
# T1 sequence (P19793 whole entry): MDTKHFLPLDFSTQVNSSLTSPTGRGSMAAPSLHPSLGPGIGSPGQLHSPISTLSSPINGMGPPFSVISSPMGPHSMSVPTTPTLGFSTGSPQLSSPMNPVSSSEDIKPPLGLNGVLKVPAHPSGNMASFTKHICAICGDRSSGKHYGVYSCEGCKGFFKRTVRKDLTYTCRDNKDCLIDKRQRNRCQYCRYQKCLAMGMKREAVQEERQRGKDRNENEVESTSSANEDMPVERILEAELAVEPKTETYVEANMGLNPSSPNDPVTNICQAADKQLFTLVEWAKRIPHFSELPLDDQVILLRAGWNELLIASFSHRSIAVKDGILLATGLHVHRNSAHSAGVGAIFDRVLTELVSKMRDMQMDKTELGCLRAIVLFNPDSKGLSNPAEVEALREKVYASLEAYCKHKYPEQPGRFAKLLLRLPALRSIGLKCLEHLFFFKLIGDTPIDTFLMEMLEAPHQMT
# [2] = system: MDA-MB-231; test: Effect on MDA-MB-231 cell proliferation with compound 8; Significant inhibition; type: functional, cell-based; conditions: Homo sapiens
# [3] = system: MDA-MB-231; test: Effect on MDA-MB-231 cell proliferation; No effect; type: functional, cell-based; conditions: Homo sapiens
# [4] = system: MDA-MB-231; test: Inhibition of MDA-MB-231 cell proliferation after seven days; type: functional, cell-based; conditions: Homo sapiens, MDA-MB-231, 168 h
# [5] = biological target: T1, Retinoic acid receptor RXR-alpha; test: Transcriptional activation in CV-1 cells expressing Retinoid X receptor RXR-alpha; type: cell-based, Cercopithecidae
# [6] = system: MDA-MB-231; test: Effect on MDA-MB-231 cell proliferation with trans-RA; No inhibition; type: functional, cell-based; conditions: Homo sapiens
# [7] = system: MDA-MB-231; test: Effect on MDA-MB-231 cell proliferation; No inhibition; type: functional, cell-based; conditions: Homo sapiens
# [8] = system: MDA-MB-231; test: Inhibition of MDA-MB-231 cell proliferation after seven days at 12.5 uM; type: functional; conditions: Homo sapiens, MDA-MB-231, 168 h
# [9] = biological target: T2, Retinoic acid receptor beta (Homo sapiens) (UniProt P10826); test: Percent transcriptional activation of Retinoic acid receptor beta at 1 uM compared to 1 uM trans-retinoic acid
# T2 sequence (whole entry): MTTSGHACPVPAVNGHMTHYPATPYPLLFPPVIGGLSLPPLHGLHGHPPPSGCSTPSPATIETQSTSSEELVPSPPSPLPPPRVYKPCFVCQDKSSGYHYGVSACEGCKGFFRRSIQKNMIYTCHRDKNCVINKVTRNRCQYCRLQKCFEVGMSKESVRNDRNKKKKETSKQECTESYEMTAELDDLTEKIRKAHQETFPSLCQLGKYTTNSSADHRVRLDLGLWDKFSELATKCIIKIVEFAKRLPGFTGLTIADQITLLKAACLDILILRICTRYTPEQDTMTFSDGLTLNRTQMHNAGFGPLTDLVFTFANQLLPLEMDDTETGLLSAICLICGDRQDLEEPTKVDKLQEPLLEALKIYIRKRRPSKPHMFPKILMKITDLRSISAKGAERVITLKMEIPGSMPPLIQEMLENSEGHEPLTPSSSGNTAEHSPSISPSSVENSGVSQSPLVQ
# [10] = biological target: T3, Retinoic acid receptor gamma (Homo sapiens) (UniProt P13631); test: Percent transcriptional activation of Retinoic acid receptor RAR gamma receptor at 1 uM compared to 1 uM trans-retinoic acid
# T3 sequence (whole entry): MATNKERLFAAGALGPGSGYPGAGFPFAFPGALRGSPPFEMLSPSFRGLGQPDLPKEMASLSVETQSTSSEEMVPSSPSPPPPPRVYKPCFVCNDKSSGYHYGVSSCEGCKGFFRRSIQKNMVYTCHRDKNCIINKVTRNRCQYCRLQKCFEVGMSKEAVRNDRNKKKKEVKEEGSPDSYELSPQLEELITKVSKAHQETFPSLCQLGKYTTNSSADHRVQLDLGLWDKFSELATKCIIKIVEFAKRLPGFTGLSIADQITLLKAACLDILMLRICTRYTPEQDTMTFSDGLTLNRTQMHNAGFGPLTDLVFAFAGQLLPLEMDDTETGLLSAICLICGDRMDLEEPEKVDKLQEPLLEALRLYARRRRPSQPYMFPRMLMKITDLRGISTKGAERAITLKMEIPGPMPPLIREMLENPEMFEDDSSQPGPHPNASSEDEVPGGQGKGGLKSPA
# [11] = biological target: T4, Retinoic acid receptor alpha (Homo sapiens) (UniProt P10276); test: Percent transcriptional activation of Retinoic acid receptor RAR alpha at 1 uM compared to 1 uM trans-retinoic acid
# T4 sequence (whole entry): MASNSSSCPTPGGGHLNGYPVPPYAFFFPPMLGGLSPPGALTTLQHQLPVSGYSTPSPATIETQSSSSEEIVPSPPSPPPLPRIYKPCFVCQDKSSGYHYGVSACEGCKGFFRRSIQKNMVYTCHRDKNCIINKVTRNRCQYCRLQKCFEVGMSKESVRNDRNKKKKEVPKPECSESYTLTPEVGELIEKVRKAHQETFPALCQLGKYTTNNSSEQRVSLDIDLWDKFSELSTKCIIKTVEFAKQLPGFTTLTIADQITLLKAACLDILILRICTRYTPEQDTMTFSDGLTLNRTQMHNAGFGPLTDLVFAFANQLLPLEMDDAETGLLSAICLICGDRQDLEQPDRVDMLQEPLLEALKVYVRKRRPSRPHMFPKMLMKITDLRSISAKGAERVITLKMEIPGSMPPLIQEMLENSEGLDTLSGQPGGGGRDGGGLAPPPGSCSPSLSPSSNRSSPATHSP
smiles,measurement,setting,value
CC1(C)CCC(C)(C)c2cc(-c3cccc4cc(C(=O)O)ccc34)ccc21,AC50,[1],> 1 µM
CC1=C(/C=C/C(C)=C/C=C/C(C)=C/C(=O)O)C(C)(C)CCC1,Activity,[2],Active
same,Activity,[3],inactive
CC1(C)CCC(C)(C)c2cc(C(=C3CC3)c3ccc(C(=O)O)cc3)ccc21,IC50,[4],1.1 µM
same,AC50,[5],0.005 µM
CC(C)=C(c1ccc(C(=O)O)cc1)c1cc2c(cc1C)C(C)(C)CCC2(C)C,Activity,[6],inactive
same,Activity,[7],inactive
same,AC50,[5],0.022 µM
Cc1cc2c(cc1C(=C1CC1)c1ccc(C(=O)O)cc1)C(C)(C)CCC2(C)C,AC50,[5],< 0.01 µM
CC(C)=C(c1ccc(C(=O)O)cc1)c1ccc2c(c1)C(C)(C)CCC2(C)C,AC50,[5],0.16 µM
CC(C)/C=C(/c1ccc(C(=O)O)cc1)c1ccc2c(c1)C(C)(C)CCC2(C)C,AC50,[5],> 1 µM
CC1=C(/C=C/C(C)=C\C=C\C(C)=C\C(=O)O)C(C)(C)CCC1 [ALITRETINOIN],inhibition at 12.5 µM,[8],45%
same,Activation,[9],112%
same,Activation,[10],126%
same,Activation,[11],105%
